Measurements published in US11826435B2, “Conduritol aziridine derivatives and uses thereof” (University of Saskatchewan, priority 2017, dated 2023).

How the values were obtained:
GCase = GCase (Homo sapiens (Human), UniProt P04062); details: cited from earlier work; for ki/Ki previously reported: previously reported (ref 44)
[1] = target: GCase in the presence of Saposin C (Homo sapiens (Human), UniProt P04062); assay: GCase inactivation rate in the presence of Saposin C; assay type: biochemical; details: in words
Chain of GCase in the presence of Saposin C (P04062 40-536): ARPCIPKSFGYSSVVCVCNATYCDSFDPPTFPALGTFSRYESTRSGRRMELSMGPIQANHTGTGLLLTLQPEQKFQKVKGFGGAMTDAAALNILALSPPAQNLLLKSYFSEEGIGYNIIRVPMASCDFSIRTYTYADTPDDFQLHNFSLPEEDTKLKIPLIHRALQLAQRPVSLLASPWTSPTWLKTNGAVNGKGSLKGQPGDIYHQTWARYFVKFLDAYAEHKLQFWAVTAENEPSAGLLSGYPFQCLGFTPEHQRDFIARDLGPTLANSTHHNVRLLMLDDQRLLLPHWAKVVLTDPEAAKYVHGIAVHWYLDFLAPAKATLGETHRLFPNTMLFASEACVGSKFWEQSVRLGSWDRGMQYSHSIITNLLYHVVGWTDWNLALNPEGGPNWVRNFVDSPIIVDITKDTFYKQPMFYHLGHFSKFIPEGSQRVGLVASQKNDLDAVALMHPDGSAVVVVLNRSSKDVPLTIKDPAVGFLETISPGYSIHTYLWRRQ

GCase over GBA2 and GBA3 = GCase over GBA2 and GBA3 (Homo sapiens (Human), UniProt P04062); details: in words; cited from earlier work
Chain of GCase over GBA2 and GBA3 (P04062 40-536): as above

[2] = target: Cerezyme (Recombinant GCase) (Homo sapiens (Human), UniProt P04062, R534H); assay: Inactivation assay: residual Cerezyme activity with 2,4-DNP-β-Glc substrate; assay type: biochemical; details: 37° C., pH 5.5
Chain of Cerezyme (Recombinant GCase) (P04062 40-536 R534H limits assumed): as the sequence (P04062 40-536) above, with R495H counted along it
Description: Inactivation solutions contained a final concentration of 16.55 nM of Cerezyme® (Recombinant GCase) in 200 μL of Reaction Buffer (50 mM acetate, 0.2% v/v Triton X-100, 0.3% w/v sodium taurocholate, pH 5.5). […] These enzyme Reaction Buffers were brought to 37° C. and spiked with a corresponding inhibitor to make the final inhibitor concentration either 20 nM, 40 nM, 60 nM, 80 nM, 120 nM, 160 nM and 200 nM. Once the inhibitor was added this was considered time=0 minutes. Meanwhile a 96 well plate inside a Biotek Synergy 4 hybrid multi-mode reader at 37° C. was being incubated. In the wells of the plate were waiting a high concentration (3.2 mM) of 2,4-DNP-β-Glc substrate in 180 μL of Reaction Buffer. […] Once all the aliquots were added the solution in the wells was measured for absorbance at 400 nm for 8 minutes. […] Inactivation rates for varying inhibitor concentrations were calculated using GraphPad Prism software and Equation 2 (below). […]
Small aliquots of these reaction mixtures were withdrawn and diluted 20-fold in 96 well plates containing a final concentration of 4 mM of the substrate 2,4-DNP-β-D-Glc. […] Residual enzymatic activity at different time points and concentrations was monitored by quantifying the release of 2,4-DNP after 2,4-DNP-3-D-Glc cleavage by Cerezyme®. […]

[3] = in words; cited from earlier work
[4] = target: Cerezyme, a recombinant form of GCase (Homo sapiens (Human), UniProt P04062, R534H); details: cited from earlier work
Chain of Cerezyme, a recombinant form of GCase (P04062 40-536 R534H limits assumed): as the sequence (P04062 40-536) above, with R495H counted along it

Chain of GCase (P04062 40-536): as the sequence (P04062 40-536) above

Compound: hexyl conduritol aziridine
- ki/Ki previously reported (GCase): 10700 ± 500 M⁻¹ s⁻¹

Compound: N-octyl conduritol aziridine [Compound 1.7]
- inactivation rates towards GCase with Saposin C [1]: enhanced
- selectivity for GCase over GBA2 and GBA3 (GCase over GBA2 and GBA3): selective inhibition of GCase over GBA2 and GBA3
- ki/Ki [2]: 78300 ± 4170 M⁻¹ s⁻¹
- cell permeability [3]: cell permeable
- ki/Ki (GCase; inhibition of GCase, reported data): 25.0 μM^−1/min^−1
- ki/Ki previously reported (GCase): 61170 ± 1170 M⁻¹ s⁻¹
- ki (GCase; rate constant of inactivation of GCase, reported data): 0.120 min⁻¹

Compound: O[C@H]1[C@H](O)[C@@H](O)[C@H]2[C@@H]([C@@H]1O)N2CCCCC#Cc1ccc(F)cc1 (mixture of isomers) [Compound 34, (±)-(1R,2S,3R,4R,5S,6S)-7-(6-(4-fluorophenyl)hex-5-yn-1-yl)-7-azabicyclo[4.1.0]heptane-2,3,4,5-tetraol]
- ki/Ki [2]: 85000 ± 1670 M⁻¹ s⁻¹

Compound: butyl conduritol aziridine
- ki/Ki previously reported (GCase): 63.3 ± 1.7 M⁻¹ s⁻¹

Compound: O=[N+]([O-])c1ccc(OC2O[C@H](CO)[C@@H](O)[C@H](O)[C@H]2F)c([N+](=O)[O-])c1 (stereo partly drawn) [Compound 1.1, β-2,4-dinitrophenyl-fluorodeoxyglucose]
- t½ of glucosyl-enzyme [4]: > 21.67 h
